Test results published in patent US4602025A, “Aromatase inhibitors” (Eli Lilly and Company, priority 1984, dated 1986).

Legend:
aromatase = molecular target: T1, aromatase (Rattus norvegicus, UniProt P22443); assay: biochemical; conditions: rat ovarian microsomes; substrate (androstenedione) concentration 0.1 μM; inhibitors tested between 0.005 and 10 μM
T1 sequence (P22443 1-508): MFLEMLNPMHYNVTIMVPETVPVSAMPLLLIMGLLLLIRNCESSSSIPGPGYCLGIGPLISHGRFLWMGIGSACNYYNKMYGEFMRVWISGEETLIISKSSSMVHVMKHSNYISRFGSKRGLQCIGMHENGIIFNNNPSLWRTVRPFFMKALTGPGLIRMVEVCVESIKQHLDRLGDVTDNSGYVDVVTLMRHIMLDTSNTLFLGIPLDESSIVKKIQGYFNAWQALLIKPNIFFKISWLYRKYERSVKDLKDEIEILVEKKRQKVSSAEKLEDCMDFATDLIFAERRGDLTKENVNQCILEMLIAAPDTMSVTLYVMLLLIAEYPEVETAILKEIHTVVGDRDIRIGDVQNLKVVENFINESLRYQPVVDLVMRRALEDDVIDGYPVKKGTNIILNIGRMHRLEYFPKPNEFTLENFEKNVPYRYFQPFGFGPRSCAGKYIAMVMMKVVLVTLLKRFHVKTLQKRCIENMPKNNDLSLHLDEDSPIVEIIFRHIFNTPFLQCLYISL
Protocol: In this test system, ovarian microsomes are obtained from rats treated with pregnant mares serum gonadotropin. Test compounds are added to reaction vials containing 0.1 μM 4-androstene-3,17-dione, 100,000 dpm 1,2[^3 H]-androstenedione, the microsomes and a NADPH generating system.

breast cancer = conditions: known aromatase inhibitors; Cancer Research, Vol. 42, Suppl. 8:3261s (1982); cited from earlier work

Clc1ccc(C(c2ccc(Cl)cc2)(c2ccns2)n2cncn2)cc1 [Example 7, 1-[Bis(4-chlorophenyl)-5-isothiazolemethyl]-1H-1,2,4-triazole]
EC50 (aromatase): 51 nM

c1ccc(C(c2ccccc2)(c2ccns2)n2cncn2)cc1 [Example 2, 5-(Diphenyl-1H-1,2,4-triazol-1-ylmethyl)-isothiazole]
EC50 (aromatase): 257 nM

C[C@]12C=CC(=O)C=C1CC[C@@H]1[C@@H]2CC[C@]2(C)OC(=O)CC[C@@H]12 [testolactone]
effect in treatment of breast cancer (breast cancer): beneficial effect

CCC1(c2ccc(N)cc2)CCC(=O)NC1=O (stereo not shown) [aminoglutethimide]
effect in treatment of breast cancer (breast cancer): beneficial effect
